One assay relates to tangle-like formations. Nature of the assay: Electron microscopic immunogold analysis of cultured slices. The note with it: ZPAD 6 days. It counts as cell-based, mouse. The method, then:
Lowicryl resin-embedded ultrathin sections (of 70-80 nm thickness) were picked up on either pioloform-coated nickel slot grids or pioloform-coated 400 mesh nickel grids. The grids were incubated on drops of blocking solution, followed by incubation on drops of primary antibodies (AT8 or PHF-1). After the incubation with primary antibodies, the sections were washed in TBS (three times for 10 min each) and in 50 mM Tris-HCl, pH 7.4, containing 0.9% NaCl (“TBS*”; once for 10 min; TBS* has 50 mM Tris-HCl and 0.9% NaCl without KCl, while TBS has 25 mM Tris-HCl and KCl) ) and incubated on drops of goat anti-mouse IgG coupled to 10 nm gold particles (British BioCell Int.). The secondary antibodies were diluted 1:100 in TBS* containing 0.05% polyethylene glycol 20000 (BDH; Merck) and 1% gelatin for 2 hr at 28° C. After additional washing in TBS* (three times for 10 min each) and PBS (once for 10 min), the sections were post-fixed in 2% glutaraldehyde in PBS for 2 min at room temperature and then washed in bidistilled water (three times for 10 min each). Finally, the sections were contrasted with saturated aqueous uranyl acetate followed by staining with lead citrate. […]

Another assay deals with p35. Nature of the assay: Immunoblot of p35/p25 in cultured rat hippocampal slices. The assay is classed as cell-based. The note with it: hippocampal slices. (A western blot detects proteins with antibodies after separation by electrophoresis.)
In another assay the test system is tau protein. The note with it: literature report; cited from earlier work.
Another assay deals with MAPK (ERK1/2). As to the kind of experiment: Immunoblot with anti-active MAPK in cultured hippocampal slices. The assay is classed as cell-based. The note with it: hippocampal slices; 6 days.
Another assay relates to cathepsin D. The conditions noted are these: literature report; cited from earlier work.
For the next assay, the system named is TGF-beta. Nature of the assay: RT-PCR/northern blot of cytokine mRNA in cultured hippocampal slices. It counts as cell-based. The note with it: ZPAD 20 μM, mevastatin 20 μM.

Entries after “also recorded” stand apart in the source; their conditions may differ.

Method for p35: Hippocampal slices were collected, homogenized, and subjected to SDS-PAGE electrophoresis. Immunoblots were then probed with anti-p35 sera that were raised against the C-terminal domain of p35.
Cultures of hippocampal slices were prepared from 10-12 days old rats.

With “N-CBZ-L-phenylalanyl-L-alanine-diazomethyl-ketone [ZPAD]”, in the assay on tangle-like formations, the “ultrastructure: intracellular inclusions” value is reported as “Numerous intracellular inclusions”. In the assay with p35 (6 days), the “levels of p35” value is “significant decrease”. For the same substance, the “truncated form p25” value in the assay with p35 (six day treatment) is “paralleled increase”. For the same substance, in the assay with tau protein, the “29 kDa tau fragment (tau 29)” value is on record as “production of a 29-kDa tau fragment; also recorded: delayed appearance of a 29 kDa fragment” and the “high molecular weight isoforms of tau protein” value was “degradation of high molecular weight isoforms of tau protein”. For the same substance, in the assay on MAPK (ERK1/2), the “activated MAPK (ERK1/2)” value is reported as “activated; also recorded: activation”. Moreover, the “enzymatically active cathepsin D” value in the assay on cathepsin D is given as “increases in enzymatically active cathepsin D”. The “mRNA levels of TGF-beta” value in the assay on TGF-beta is “increases”.

(Values after patent US6803233B2, “Model for Alzheimer's disease and other neurodegenerative diseases” (priority 2000, dated 2004).)
